Test results as given in patent US20120135975A1, “Substituted Esters as Cannabinoid-1 Receptor Modulators” (MERCK & CO., INC., priority 2006, published 2012).

What was measured:
[1] = target: T1, recombinant human CB2 receptor (Homo sapiens, UniProt P34972); assay: CB2 receptor binding assay; conditions: receptor expressed in CHO cells
T1 construct: expressed in transfected cells
Protocol: (§1) Binding affinity determination is based on recombinant human CB1 receptor expressed in Chinese Hamster Ovary (CHO) cells (Felder et al, Mol. Pharmacol. 48: 443-450, 1995). Total assay volume is 250 μL (240 μL CB1 receptor membrane solution plus 5 μL test compound solution plus 5 μL [3H]CP-55940 solution). Final concentration of [3H]CP-55940 is 0.6 nM. Binding buffer contains 50 mM Tris-HCl, pH7.4, 2.5 mM EDTA, 5 mM MgCl2, 0.5 mg/mL fatty acid free bovine serum albumin and protease inhibitors (Cat#P8340, from Sigma). To initiate the binding reaction, 5 μL of radioligand solution is added, the mixture is incubated with gentle shaking on a shaker for 1.5 hours at 30° C. The binding is terminated by using 96-well harvester and filtering through GF/C filter presoaked in 0.05% polyethylenimine. The bound radiolabel is quantitated using scintillation counter. Apparent binding affinities for various compounds are calculated from IC50 values (DeBlasi et al., Trends Pharmacol Sci 10: 227-229, 1989).
The binding assay for CB2 receptor is done similarly with recombinant human CB2 receptor expressed in CHO cells.

[2] = target: T2, recombinant human CB1 receptor (Homo sapiens, UniProt P21554); assay: Cannabinoid Receptor-1 (CB1) functional activity assay (cAMP); type: cell-based; conditions: CB1-CHO cells, forskolin-stimulated cAMP
T2 construct: expressed in transfected cells
Protocol: (§2) The functional activation of CB1 receptor is based on recombinant human CB1 receptor expressed in CHO cells (Felder et al, Mol. Pharmacol. 48: 443-450, 1995). To determine the agonist activity or inverse agonist activity of any test compound, 50 μL of CB1-CHO cell suspension are mixed with test compound and 70 uL assay buffer containing 0.34 mM 3-isobutyl-1-methylxanthine and 5.1 μM of forskolin in 96-well plates. The assay buffer is comprised of Earle's Balanced Salt Solution supplemented with 5 mM MgCl2, 1 mM glutamine, 10 mM HEPES, and 1 mg/mL bovine serum albumin. The mixture is incubated at room temperature for 30 minutes, and terminated by adding 30 μl/well of 0.5M HCl. The total intracellular cAMP level is quantitated using the New England Nuclear Flashplate and cAMP radioimmunoassay kit.
(§3) To determine the antagonist activity of test compound, the reaction mixture also contains 0.5 nM of the agonist CP55940, and the reversal of the CP55940 effect is quantitated. Alternatively, a series of dose response curves for CP55940 is performed with increasing concentration of the test compound in each of the dose response curves.

[3] = target: T1, recombinant human CB2 receptor; assay: CB2 receptor functional assay (cAMP); type: cell-based; conditions: CB2 receptor expressed in CHO cells
Protocol: as §2, §3
The functional assay for the CB2 receptor is done similarly with recombinant human CB2 receptor expressed in CHO cells.

[4] = target: T2, recombinant human CB1 receptor; assay: Cannabinoid Receptor-1 (CB1) binding assay; conditions: [3H]CP-55940 0.6 nM, receptor expressed in CHO cells
Protocol: as §1

T1 sequence (P34972 whole entry): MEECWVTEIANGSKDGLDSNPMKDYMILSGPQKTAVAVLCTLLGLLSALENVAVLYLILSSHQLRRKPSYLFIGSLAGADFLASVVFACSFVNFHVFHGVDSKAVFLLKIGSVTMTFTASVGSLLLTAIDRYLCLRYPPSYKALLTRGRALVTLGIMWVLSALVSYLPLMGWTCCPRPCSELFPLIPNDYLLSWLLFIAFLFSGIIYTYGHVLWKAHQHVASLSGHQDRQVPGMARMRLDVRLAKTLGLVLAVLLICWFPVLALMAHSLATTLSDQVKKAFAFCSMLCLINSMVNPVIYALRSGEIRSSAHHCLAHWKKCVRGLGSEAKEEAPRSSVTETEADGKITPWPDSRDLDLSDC
T2 sequence (P21554 whole entry): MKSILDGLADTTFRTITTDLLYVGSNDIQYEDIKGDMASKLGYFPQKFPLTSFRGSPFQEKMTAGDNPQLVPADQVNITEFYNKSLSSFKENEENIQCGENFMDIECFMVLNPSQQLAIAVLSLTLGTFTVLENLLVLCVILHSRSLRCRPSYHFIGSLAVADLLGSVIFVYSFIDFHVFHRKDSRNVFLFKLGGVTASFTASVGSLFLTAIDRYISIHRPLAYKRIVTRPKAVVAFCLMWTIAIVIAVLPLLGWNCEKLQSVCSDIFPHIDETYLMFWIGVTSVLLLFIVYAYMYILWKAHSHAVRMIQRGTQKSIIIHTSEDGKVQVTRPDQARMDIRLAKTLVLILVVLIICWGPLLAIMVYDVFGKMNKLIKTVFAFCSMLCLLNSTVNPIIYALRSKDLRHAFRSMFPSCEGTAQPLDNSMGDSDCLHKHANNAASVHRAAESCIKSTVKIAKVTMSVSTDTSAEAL

## C[C@H](NC(=O)C(C)(C)OC(=O)c1c(Cl)cccc1Cl)[C@@H](Cc1ccc(Cl)cc1)c1cccc(C#N)c1 [Example 30, N-(3-(4-chlorophenyl)-2(S)-(3-cyanophenyl)-1(S)-methylpropyl)-2-(2,6-dichloro-benzoyloxy)-2-methyl-propanamide]
[1]
  IC50: 0.811 µM
[2]
  % max in the CB1 functional assay: −157 % max
  EC50: 0.00185 µM
[3]
  % max in the CB2 functional assay: −192 % max
  EC50: 0.162 µM
[4]
  IC50: 0.00254 µM
